# Test results reported in patent publication US7960168B2, “Biologically active substance transfer sheet, cell culture kit constituted of cell culture plate and biologically active substance transfer sheet, producing method thereof and method for screening cell culture conditions utilizing the same” (Canon Kabushiki Kaisha, priority 2003, dated 2011).
# Assays:
# Assay type in all cases: cell-based
# nerve cell strain PC12 = experiment: PC12 culture with immobilized EGF and dissolved EGF/NGF, hematoxilin-eosin staining (Example 6); details: PC12, 48 hours
# Experimental: An epidermal cell growth factor (EGF) and a nerve cell growth factor (NGF) were employed as the biologically active substances. A culture plate of polystyrene 96-well cell culture plate was prepared by a process similar to that in Example 5, providing areas (wells) where EGF was immobilized with stepwise concentrations, and control areas (wells) of no immobilization. Separately, a stretchable polyolefin sheet was coated with hydroxypropyl cellulose by using a bar coater and heated for 10 minutes at 60° C. to form a holding layer. Then EGF and NGF were provided on the sheet by using a Canon ink jet printer PIXUS950i to obtain a transfer sheet on which areas carrying EGF and NGF singly or in combination. Screening was conducted with these cell culture plate and transfer sheet.
# The transfer sheet was placed on the cell culture plate sterilized in advance with a sterilizing lamp and filled with a culture liquid, then the areas carrying biological substance(s) of the sheet were brought into contact with the culture liquid in the wells by pushing the opposite surface of the sheet with a pointed article, and the contact was maintained for 15 minutes under light shaking to dissolve the biologically active substance in the culture liquid. […]
# [1] = tested on: mouse skeletal muscle cell strain C2C12; experiment: C2C12 culture with sequential transfer sheets A and B, CK and ALP activities (Example 2); details: C2C12, areas containing IGF-I only
# From the text: As the biologically active substances, fibroblast cell growth factor-2 (FGF-2), insulin-like growth factor-I (IGF-I), bone morphogenetic protein-2 (BMP-2) and transforming growth factor-β (TGF-β) were employed.
# A DMEM culture liquid containing 2% FBS was put into wells of two 96-well transparent microplates 1 and 2. […] In this manner, the sheet A was used to provide FGF-2 and IGF-I to the microplate 1, and the sheet B was used to provide BMP-2 and TGF-β to the microplate 2. Then, in each well of each microplate, cells of mouse skeletal muscle cell strain C2C12 were cultured for 48 hours in humidified air supplied with 5% CO2. 48 hours after the start of the culture, the culture liquid was removed from each cell by suction. After fresh 2% FBS/DMEM was added to each well, a transfer sheet B was applied to the microplate 1 to supply BMP-2 and TGF-β, while a transfer sheet B was applied to the microplate 2 to supply FGF-2 and IGF-I, and the cell culture was conducted for further 48 hours.
# [2] = tested on: mouse skeletal muscle cell strain C2C12; experiment: C2C12 culture with transfer sheet carrying b-FGF, IGF-I and BMP-2, microscope observation (Example 1); details: C2C12, 96 hours culture
# Experimental: Basic fibroblast cell growth factor (b-FGF), insulin-like growth factor (IGF-I) and bone morphogenetic protein (BMP-2) were used as the biologically active substance. b-FGF was dissolved in a physiological saline solution, IGF-I in 10 mM acetic acid, and BMP-2 in 4 mM hydrochloric acid to prepare solutions each containing the biologically active substance at a concentration of 20 μg/ml and 5% glycerin. Ink cartridges were washed with 70% ethanol, to which the respective solutions prepared above were filled.
# Then, on a base of a polyolefin sheet (NOVIX-II® manufactured by Asahi Techno Glass), sterilized in advance with a sterilizing lamp, the biologically active substances were discharged by using an ink jet printer (Ink jet printer F930, Canon). […]
# The cells after the culture were treated with 10% formalin for 15 minutes and then with methanol for 15 minutes, and finally with a 1000-fold dilution of fluorescent dye (TOTO-3 manufactured by Molecular Probe) for 30 minutes for fluorescent staining of DNA. […] Also the cells were subjected to freeze-fracture and the creatinkinase (KP) and alkaliphosphatase (ALP) activities were measured.
# [3] = tested on: mouse skeletal muscle cell strain C2C12; experiment: C2C12 culture on plate with immobilized b-FGF and IGF-I and BMP-2 transfer sheet, optical microscope (Example 5); details: C2C12, 96 hours
# Experimental: The following method was employed for acting biologically active substances in combination on cells. As the biologically active substances, there were employed basic fibroblast cell growth factor (b-FGF), insulin-like growth factor (IGF-I) and bone morphogenetic protein (BMP-2).
# First, bFGF and IGF-I were immobilized onto a polystyrene 96-well cell culture plate in the following manner.
# On the cell culture plate coated with poly-L-lysine, a solution (1.5 mg/ml) of active dextran activated with tresyl chloride was added to bind the activated dextran to the plate. Then carbonate buffer solutions containing b-FGF and IGF-I respectively were prepared, applied to the microplate with various amounts. The microplate was left to stand for 12 hours at 4° C. to prepare a cell culture plate including areas where b-FGF and IGF-I were immobilized either singly or in combination with different concentrations, as well as control areas without immobilization.
# A polystyrene sheet having projections corresponding the wells of the microplate was provided and sterilized. […]
# Then the cells were treated with 10% formalin for 15 minutes and then with methanol for 15 minutes, and reacted with a fluorescent dye for 30 minutes for fluorescent staining of DNA. […] Thus the complex effects of three factors, namely immobilized bFGF, soluble IGF-I and BMP-2, to the cells were analyzed.
# [4] = tested on: mouse skeletal muscle cell strain C2C12; experiment: C2C12 culture with BMP-2, sustained-release IGF-I and timed FGF-2 addition, ALP staining (Example 3)
# Experimental: On the other hand, the 20 μg/ml solution of the insulin-like growth factor (IGF-I) contained 5% glycerin and 3% styrene-acrylic resin monoethanolamine salt (average molecular weight 8,000, acid value 250) for controlled release of IGF. Ink cartridges were washed with 70% ethanol, and were filled with the respective solutions of the biologically active substances.
# Each polyolefin sheet was processed in advance to have minute holes at positions corresponding to the wells of a 96 well plate to allow gas exchange. A DMEM culture liquid containing FBS by 2% was put in wells of five 96-well transparent microplates. […] Then, in each well, cells of a mouse skeletal muscle cell strain C2C12 were added. Next, a transfer sheet carrying IGF-I was superimposed on each of the microplate and pressed from the above using the above jig so that each region of the sheet came in contact with the culture liquid in each well to gradually release IGF-I into the culture liquid, and cell culture was started. The above operations were carried out in the same manner with the five microplates. After a predetermined time from the start of the culture, the transfer sheet of one of the microplates was replaced by a transfer sheet carrying FGF-2 to dissolve FGF-2 into the culture liquid. After that the transfer sheet was replaced by the previous IGF-I sheet and the culture was continued. All the cells were cultured for 114 hours in total at 37° C., in humidified air containing 5% CO2. The FGF-2 addition was conducted at the following points:
# (1) immediately after the start of culture;
# (2) 12 hours after the start of culture;
# (3) 24 hours after the start of culture;
# (4) 48 hours after the start of culture;
# (5) 72 hours after the start of culture.
substance,measurement,setting,value
"EGF: epidermal cell growth factor, immobilized on the plate or dissolved from the sheet","effect on proliferation and differentiation (nuclei and cell morphology), immobilized state versus dissolved state",nerve cell strain PC12,affected the PC12 cells differently
IGF-I: insulin-like growth factor used as biologically active substance,muscle differentiation (CK relative activity),[1],accelerated
same,differentiation into muscle cells (microscope observation),[2]; areas containing IGF-I,accelerated depending on the concentrations
same,muscle differentiation (optical microscope),[3]; areas containing IGF-I,muscle differentiation
"b-FGF: Basic fibroblast cell growth factor, a cell growth factor used as biologically active substance",ALP staining (index for bone differentiation by BMP-2),[4]; FGF-2 added (1) immediately after the start of culture,stained portions were scarcely observed
same,ALP staining (index for bone differentiation by BMP-2),[4]; FGF-2 added (2) 12 hours after the start of culture,stained portions were scarcely observed
same,ALP staining (index for bone differentiation by BMP-2),[4]; FGF-2 added (3) 24 hours after the start of culture,portions stained with ALP were confirmed
same,ALP staining (index for bone differentiation by BMP-2),[4]; FGF-2 added (4) 48 hours after the start of culture,portions stained with ALP were confirmed
same,ALP staining (index for bone differentiation by BMP-2),[4]; FGF-2 added (5) 72 hours after the start of culture,portions stained with ALP were confirmed
same,bone differentiation from muscle cells into bone cells,[4]; adding FGF-2 within 24 hours after the start of the culture,significantly suppressed
same,cell proliferation (microscope observation),[2]; areas containing b-FGF,accelerated depending on the concentrations
same,cell proliferation (optical microscope),[3]; areas containing immobilized b-FGF,cell proliferation
